# Laboratory results: ChEMBL document CHEMBL3272010, “Antimycotic imidazoles. 3. Synthesis and antimycotic properties of 1-[2-(aryloxyalkyl)-2-phenylethyl]-1H-imidazoles” (1977)
# Test system: Aspergillus fumigatus
# Assay: Antifungal activity against Aspergillus fumigatus assessed as lowest dose required to total inhibition of fungal growth
# Assay type: functional
row,Compound,GI [µg/mL]
1,Clc1ccc(COC(Cn2ccnc2)c2ccc(Cl)cc2Cl)c(Cl)c1 (configuration not stated) [MICONAZOLE],10
2,Clc1ccc(C(CCOc2ccc(Br)cc2)Cn2ccnc2)c(Cl)c1.O=[N+]([O-])O (configuration not stated),100
3,Fc1ccc(OCCCC(Cn2ccnc2)c2ccc(Cl)cc2Cl)cc1.O=C(O)C(=O)O (configuration not stated),100

# Test system: Candida tropicalis
# Assay: Antifungal activity against Candida tropicalis assessed as lowest dose required to total inhibition of fungal growth
# Assay type: functional
row,Compound,GI [µg/mL]
1,Clc1ccc(COC(Cn2ccnc2)c2ccc(Cl)cc2Cl)c(Cl)c1 (configuration not stated) [MICONAZOLE],100
2,Clc1ccc(C(CCOc2ccc(Br)cc2)Cn2ccnc2)c(Cl)c1.O=[N+]([O-])O (configuration not stated),100
3,Fc1ccc(OCCCC(Cn2ccnc2)c2ccc(Cl)cc2Cl)cc1.O=C(O)C(=O)O (configuration not stated),>100

# Test system: Candida albicans
# Assay: Antifungal activity against Candida albicans assessed as lowest dose required to total inhibition of fungal growth
# Assay type: functional
row,Compound,GI [µg/mL]
1,Clc1ccc(COC(Cn2ccnc2)c2ccc(Cl)cc2Cl)c(Cl)c1 (configuration not stated) [MICONAZOLE],10
2,Clc1ccc(C(CCOc2ccc(Br)cc2)Cn2ccnc2)c(Cl)c1.O=[N+]([O-])O (configuration not stated),<10
3,Fc1ccc(OCCCC(Cn2ccnc2)c2ccc(Cl)cc2Cl)cc1.O=C(O)C(=O)O (configuration not stated),>100

# Test system: Staphylococcus haemolyticus
# Assay: Antibaterial activity against Staphylococcus haemolyticus assessed as lowest dose required to total inhibition of bacterial growth
# Assay type: functional
row,Compound,GI [µg/mL]
1,Clc1ccc(COC(Cn2ccnc2)c2ccc(Cl)cc2Cl)c(Cl)c1 (configuration not stated) [MICONAZOLE],10
2,Clc1ccc(C(CCOc2ccc(Br)cc2)Cn2ccnc2)c(Cl)c1.O=[N+]([O-])O (configuration not stated),100
3,Fc1ccc(OCCCC(Cn2ccnc2)c2ccc(Cl)cc2Cl)cc1.O=C(O)C(=O)O (configuration not stated),10

# Test system: Trichophyton rubrum
# Assay: Antifungal activity against Trichophyton rubrum assessed as lowest dose required to total inhibition of fungal growth
# Assay type: functional
row,Compound,GI [µg/mL]
1,Clc1ccc(COC(Cn2ccnc2)c2ccc(Cl)cc2Cl)c(Cl)c1 (configuration not stated) [MICONAZOLE],<1
2,Clc1ccc(C(CCOc2ccc(Br)cc2)Cn2ccnc2)c(Cl)c1.O=[N+]([O-])O (configuration not stated),<10
3,Fc1ccc(OCCCC(Cn2ccnc2)c2ccc(Cl)cc2Cl)cc1.O=C(O)C(=O)O (configuration not stated),<1

# Test system: Microsporum canis
# Assay: Antifungal activity against Microsporum canis assessed as lowest dose required to total inhibition of fungal growth
# Assay type: functional
row,Compound,GI [µg/mL]
1,Clc1ccc(COC(Cn2ccnc2)c2ccc(Cl)cc2Cl)c(Cl)c1 (configuration not stated) [MICONAZOLE],1
2,Clc1ccc(C(CCOc2ccc(Br)cc2)Cn2ccnc2)c(Cl)c1.O=[N+]([O-])O (configuration not stated),<10
3,Fc1ccc(OCCCC(Cn2ccnc2)c2ccc(Cl)cc2Cl)cc1.O=C(O)C(=O)O (configuration not stated),<1

# Test system: Sporothrix schenckii
# Assay: Antifungal activity against Sporothrix schenckii assessed as lowest dose required to total inhibition of fungal growth
# Assay type: functional
row,Compound,GI [µg/mL]
1,Clc1ccc(COC(Cn2ccnc2)c2ccc(Cl)cc2Cl)c(Cl)c1 (configuration not stated) [MICONAZOLE],1
2,Clc1ccc(C(CCOc2ccc(Br)cc2)Cn2ccnc2)c(Cl)c1.O=[N+]([O-])O (configuration not stated),<10
3,Fc1ccc(OCCCC(Cn2ccnc2)c2ccc(Cl)cc2Cl)cc1.O=C(O)C(=O)O (configuration not stated),<1

# Test system: Phialophora verrucosa
# Assay: Antifungal activity against Phialophora verrucosa assessed as lowest dose required to total inhibition of fungal growth
# Assay type: functional
row,Compound,GI [µg/mL]
1,Clc1ccc(COC(Cn2ccnc2)c2ccc(Cl)cc2Cl)c(Cl)c1 (configuration not stated) [MICONAZOLE],100
2,Clc1ccc(C(CCOc2ccc(Br)cc2)Cn2ccnc2)c(Cl)c1.O=[N+]([O-])O (configuration not stated),<10
3,Fc1ccc(OCCCC(Cn2ccnc2)c2ccc(Cl)cc2Cl)cc1.O=C(O)C(=O)O (configuration not stated),100

# Test system: Saprolegnia
# Assay: Antifungal activity against Saprolegnia species assessed as lowest dose required to total inhibition of fungal growth
# Assay type: functional
row,Compound,GI [µg/mL]
1,Clc1ccc(COC(Cn2ccnc2)c2ccc(Cl)cc2Cl)c(Cl)c1 (configuration not stated) [MICONAZOLE],10
2,Clc1ccc(C(CCOc2ccc(Br)cc2)Cn2ccnc2)c(Cl)c1.O=[N+]([O-])O (configuration not stated),<10
3,Fc1ccc(OCCCC(Cn2ccnc2)c2ccc(Cl)cc2Cl)cc1.O=C(O)C(=O)O (configuration not stated),10

# Test system: Erysipelothrix rhusiopathiae
# Assay: Antibaterial activity against Erysipelothrix insidiosa assessed as lowest dose required to total inhibition of bacterial growth
# Assay type: functional
row,Compound,GI [µg/mL]
1,Clc1ccc(COC(Cn2ccnc2)c2ccc(Cl)cc2Cl)c(Cl)c1 (configuration not stated) [MICONAZOLE],<1
2,Clc1ccc(C(CCOc2ccc(Br)cc2)Cn2ccnc2)c(Cl)c1.O=[N+]([O-])O (configuration not stated),<10
3,Fc1ccc(OCCCC(Cn2ccnc2)c2ccc(Cl)cc2Cl)cc1.O=C(O)C(=O)O (configuration not stated),1

# Test system: Streptococcus pyogenes
# Assay: Antibaterial activity against Streptococcus pyogenes assessed as lowest dose required to total inhibition of bacterial growth
# Assay type: functional
row,Compound,GI [µg/mL]
1,Clc1ccc(COC(Cn2ccnc2)c2ccc(Cl)cc2Cl)c(Cl)c1 (configuration not stated) [MICONAZOLE],<1
2,Clc1ccc(C(CCOc2ccc(Br)cc2)Cn2ccnc2)c(Cl)c1.O=[N+]([O-])O (configuration not stated),<10
3,Fc1ccc(OCCCC(Cn2ccnc2)c2ccc(Cl)cc2Cl)cc1.O=C(O)C(=O)O (configuration not stated),1

# Test system: Mucor
# Assay: Antifungal activity against Mucor species assessed as lowest dose required to total inhibition of fungal growth
# Assay type: functional
row,Compound,GI [µg/mL]
1,Clc1ccc(COC(Cn2ccnc2)c2ccc(Cl)cc2Cl)c(Cl)c1 (configuration not stated) [MICONAZOLE],>100
2,Clc1ccc(C(CCOc2ccc(Br)cc2)Cn2ccnc2)c(Cl)c1.O=[N+]([O-])O (configuration not stated),100
3,Fc1ccc(OCCCC(Cn2ccnc2)c2ccc(Cl)cc2Cl)cc1.O=C(O)C(=O)O (configuration not stated),>100

# Test system: Trichophyton mentagrophytes
# Assay: Antifungal activity against Trichophyton mentagrophytes assessed as lowest dose required to total inhibition of fungal growth
# Assay type: functional
row,Compound,GI [µg/mL]
1,Clc1ccc(COC(Cn2ccnc2)c2ccc(Cl)cc2Cl)c(Cl)c1 (configuration not stated) [MICONAZOLE],<1
2,Clc1ccc(C(CCOc2ccc(Br)cc2)Cn2ccnc2)c(Cl)c1.O=[N+]([O-])O (configuration not stated),<10
3,Fc1ccc(OCCCC(Cn2ccnc2)c2ccc(Cl)cc2Cl)cc1.O=C(O)C(=O)O (configuration not stated),<1

# Test system: Cryptococcus neoformans
# Assay: Antifungal activity against Cryptococcus neoformans assessed as lowest dose required to total inhibition of fungal growth
# Assay type: functional
row,Compound,GI [µg/mL]
1,Clc1ccc(COC(Cn2ccnc2)c2ccc(Cl)cc2Cl)c(Cl)c1 (configuration not stated) [MICONAZOLE],1
2,Clc1ccc(C(CCOc2ccc(Br)cc2)Cn2ccnc2)c(Cl)c1.O=[N+]([O-])O (configuration not stated),<10
3,Fc1ccc(OCCCC(Cn2ccnc2)c2ccc(Cl)cc2Cl)cc1.O=C(O)C(=O)O (configuration not stated),<1
